This note sets out measurements from ChEMBL document CHEMBL1201862, “PubChem BioAssay data set” (2004).

Some test systems named below: MOLT-4; A498; DU-145; SNB-78; NCI-H522; NCI-H23; HT-29; TK-10; SK-MEL-28; CAKI-1; HCC 2998; HCT-116; SK-OV-3; MDA-MB-231; SF-539; SF-268; RPMI-8226; HL-60; LOX IMVI; BT-549.
What all share (test): NCI anticancer screen, dose series, 48 h

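These data come from cells grown in 96-well plates and exposed to compound for 48 hours at five concentrations. Here, GI50 denotes the concentration required for 50% inhibition of growth.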 Calls of active or inactive are those of the source. No stated cut-off is given here; in the data, active = GI50 up to about 1.1 µM and inactive = higher.

`O=C1OC2C(O)COC2(O)C1(O)C(C[N+](=O)[O-])c1ccc(Cl)cc1` (stereo not given): the GI50 was 2.6 µM (inactive) in the assay on MOLT-4; 4.8 µM (inactive) in the assay on A498; 18.2 µM (inactive) in the assay on DU-145; 13.8 µM (inactive) in the assay with SNB-78; 9.27 µM (inactive) with NCI-H522; 6.95 µM (inactive) in the assay with NCI-H23. For the same compound, the GI50 with HT-29 is 1.99 µM (inactive); with TK-10 it was 12.5 µM (inactive); with SK-MEL-28, 3.52 µM (inactive); with CAKI-1, 15.5 µM (inactive); in the assay on HCC 2998 it was 6.78 µM (inactive); in the assay with HCT-116, 1.79 µM (inactive). In addition, the GI50 was 17.1 µM (inactive) in the assay on SK-OV-3; 30.2 µM (inactive) in the assay on MDA-MB-231; 3.97 µM (inactive) with SF-539; 9.79 µM (inactive) with SF-268; 0.959 µM (active) in the assay on RPMI-8226; 1.76 µM (inactive) in the assay with HL-60. Besides, the GI50 with LOX IMVI was 2.69 µM (inactive); in the assay with BT-549, 6.75 µM (inactive).
